This note sets out measurements from ChEMBL document CHEMBL1201862, “PubChem BioAssay data set” (2004).

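48-hour exposure; five concentrations; linearly interpolated endpoints. Here, GI50 denotes the concentration required for 50% inhibition of growth.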 Activity calls are given as the source filed them. No stated cut-off is given here; in the data, active = GI50 up to about 1.1 µM and inactive = higher. Some results are limits rather than exact numbers.

Test systems include XF498; SNB-78; DMS-273; RXF 631; HOP-18; M19-MEL; DLD-1; DMS-114; KM-20L2.
Test in all cases: DTP human tumour cell line panel, 48 h

In general, GI50 refers to the concentration at which growth is held to half of that of the control. For the compound `O=c1[nH]cc(COCCO)c(=O)[nH]1`, the GI50 with XF498, with SNB-78, in the experiment on DMS-273, in the experiment with RXF 631, with HOP-18 and in the experiment on M19-MEL was > 100 µM (inactive) throughout. Moreover, the GI50 in the experiment with DLD-1, in the experiment with DMS-114 and with KM-20L2 was > 100 µM (inactive) each time.

On to `Cc1c(N)nc([C@H](CC(N)=O)NC[C@H](N)C(N)=O)nc1C(=O)N[C@H](C(=O)N[C@H](C)[C@@H](O)[C@H](C)C(=O)N[C@H](C(=O)NCCc1nc(-c2nc(C(=O)NCCC[S+](C)C)cs2)cs1)[C@@H](C)O)C(OC1OC(CO)C(O)C(O)C1OC1OC(CO)C(O)C(OC(N)=O)C1O)c1c[nH]cn1` (some centres not stated), for which the concentration for 50% growth inhibition (GI50) with XF498 is 0.776 µM (active); with SNB-78 it was 20.8 µM (inactive); in the experiment on DMS-273, 0.12 µM (active); with RXF 631 it was 0.608 µM (active); in the experiment with HOP-18, 4.27 µM (inactive); in the experiment on M19-MEL it was 8.28 µM (inactive). The GI50 was 14.1 µM (inactive) with DLD-1, 0.438 µM (active) in the experiment with DMS-114 and 19.9 µM (inactive) in the experiment with KM-20L2.

For the compound `O=C1NC(=O)/C(=N\c2cccc3c(=O)[nH][nH]c(=O)c23)C(c2nc3ccccc3s2)C1=O` (configuration not stated), the GI50 in the experiment on XF498 is 32.1 µM (inactive); in the experiment with SNB-78, > 100 µM (inactive); with DMS-273, > 100 µM (inactive); with RXF 631, > 100 µM (inactive); with HOP-18, > 100 µM (inactive); with M19-MEL, > 100 µM (inactive). For the same compound, the GI50 in the experiment with DLD-1, in the experiment with DMS-114 and in the experiment on KM-20L2 was > 100 µM (inactive) each time.
